Consider one compound from publication PMC5218480 (PLoS ONE, 2017).

The experiment relates to MV-4-11 cells. Nature of the experiment: Gene expression microarray analysis (Affymetrix PrimeView) and GSEA. As to conditions: MV-4-11 cells, 48 hours. On the set-up: RFU PODN (11730768_x_at) / Fold change /veh PODN (11730768_x_at) / RFU LINC00158 (11744669_a_at) / Fold change /veh LINC00158 (11744669_a_at) / RFU DUSP10 (11751237_a_at) / Fold change /veh DUSP10 (11751237_a_at) / RFU ID3 (11757404_x_at) / Fold change /veh ID3 (11757404_x_at) / RFU PLEKHG5 (11737974_s_at) / Fold change /veh PLEKHG5 (11737974_s_at) / RFU LRRC4B (11730491_at) / Fold change /veh LRRC4B (11730491_at) / RFU GIMAP4 (11747438_a_at) / Fold change /veh GIMAP4 (11747438_a_at) / RFU KRT8 (11758183_x_at) / Fold change /veh KRT8 (11758183_x_at) / RFU CNN1 (11734310_a_at) / Fold change /veh CNN1 (11734310_a_at) / RFU VPS37D (11726825_at) / Fold change /veh VPS37D (11726825_at) / RFU C10orf10 (11716522_x_at) / Fold change /veh C10orf10 (11716522_x_at) / RFU KIR2DL2 /// KIR2DL4 /// KIR2DL5A /// KIR2DL5B /// KIR2DS1 /// KIR2DS2 /// KIR2DS3 /// KIR2DS4 /// KIR3DL3 /// KIR3DL3 /// KIR3DS1 (11738374_at) / Fold change /veh KIR2DL2 /// KIR2DL4 /// KIR2DL5A /// KIR2DL5B /// KIR2DS1 /// KIR2DS2 /// KIR2DS3 /// KIR2DS4 /// KIR3DL3 /// KIR3DL3 /// KIR3DS1 (11738374_at) / RFU C1QL1 (11718748_at) / Fold change /veh C1QL1 (11718748_at) / RFU TMPRSS4 (11747572_a_at) / Fold change /veh TMPRSS4 (11747572_a_at) / RFU HAMP (11756126_x_at) / Fold change /veh HAMP (11756126_x_at) / RFU RNFT2 (11725882_a_at) / Fold change /veh RNFT2 (11725882_a_at) / RFU NR4A2 (11747474_a_at) / Fold change /veh NR4A2 (11747474_a_at) / RFU ABCC12 (11746883_a_at) / Fold change /veh ABCC12 (11746883_a_at) / RFU TMEM136 (11760407_x_at) / Fold change /veh TMEM136 (11760407_x_at) / RFU CLDN22 /// WWC2 (11732394_at) / Fold change /veh CLDN22 /// WWC2 (11732394_at) / RFU HLA-DPB1 (11760878_x_at) / Fold change /veh HLA-DPB1 (11760878_x_at) / RFU SPINT1 (11716480_a_at) / Fold change /veh SPINT1 (11716480_a_at) / RFU GAP43 (11754022_s_at) / Fold change /veh GAP43 (11754022_s_at) / RFU A4GNT (11735810_at) / Fold change /veh A4GNT (11735810_at) / RFU PRB3 (11715151_x_at) / Fold change /veh PRB3 (11715151_x_at) / RFU TUBB4B (11761932_at) / Fold change /veh TUBB4B (11761932_at) / RFU CAPN14 (11732068_a_at) / Fold change /veh CAPN14 (11732068_a_at) / RFU TMCC2 (11721928_a_at) / Fold change /veh TMCC2 (11721928_a_at) / RFU IRGQ (11745062_a_at) / Fold change /veh IRGQ (11745062_a_at) / RFU FAM174B (11720279_a_at) / Fold change /veh FAM174B (11720279_a_at) / RFU TMPRSS4 (11748680_a_at) / Fold change /veh TMPRSS4 (11748680_a_at) / RFU FAM212B (11763350_a_at) / Fold change /veh FAM212B (11763350_a_at) / RFU PLEKHG5 (11743358_a_at) / Fold change /veh PLEKHG5 (11743358_a_at) / RFU ZSCAN30 (11745921_a_at) / Fold change /veh ZSCAN30 (11745921_a_at) / RFU CMKLR1 (11741424_a_at) / Fold change /veh CMKLR1 (11741424_a_at) / RFU LOC101060620 /// MAPK8IP1 (11723275_at) / Fold change /veh LOC101060620 /// MAPK8IP1 (11723275_at) / RFU SPTSSB (11747773_x_at) / Fold change /veh SPTSSB (11747773_x_at) / RFU PRSS12 (11739890_at) / Fold change /veh PRSS12 (11739890_at) / RFU BIN1 (11741810_x_at) / Fold change /veh BIN1 (11741810_x_at) / RFU WNT11 (11732464_a_at) / Fold change /veh WNT11 (11732464_a_at) / RFU C10orf10 (11716521_a_at) / Fold change /veh C10orf10 (11716521_a_at) / RFU C5orf56 (11738089_at) / Fold change /veh C5orf56 (11738089_at) / RFU CYB561 (11721691_x_at) / Fold change /veh CYB561 (11721691_x_at) / RFU ANKRD19P (11752326_a_at) / Fold change /veh ANKRD19P (11752326_a_at) / RFU OR2T12 /// OR2T33 /// OR2T8 (11738714_s_at) / Fold change /veh OR2T12 /// OR2T33 /// OR2T8 (11738714_s_at) / RFU VCAN (11748164_a_at) / Fold change /veh VCAN (11748164_a_at) / RFU JSRP1 (11732532_at) / Fold change /veh JSRP1 (11732532_at) / RFU KRTAP10-11 (11738290_x_at) / Fold change /veh KRTAP10-11 (11738290_x_at) / RFU MYO3A (11730013_a_at) / Fold change /veh MYO3A (11730013_a_at) / RFU EBF3 (11725865_a_at) / Fold change /veh EBF3 (11725865_a_at) / RFU CAMK2N1 (11719241_x_at) / Fold change /veh CAMK2N1 (11719241_x_at) / RFU C5orf56 (11738088_a_at) / Fold change /veh C5orf56 (11738088_a_at) / RFU OLFML3 (11715873_a_at) / Fold change /veh OLFML3 (11715873_a_at) / RFU LOC100653217 /// NTM (11731650_a_at) / Fold change /veh LOC100653217 /// NTM (11731650_a_at) / RFU MAPK11 (11762145_a_at) / Fold change /veh MAPK11 (11762145_a_at) / RFU FIZ1 (11724087_x_at) / Fold change /veh FIZ1 (11724087_x_at) / RFU OASL (11726364_x_at) / Fold change /veh OASL (11726364_x_at) / RFU SOX15 (11748057_x_at) / Fold change /veh SOX15 (11748057_x_at) / RFU CD79A (11719716_a_at) / Fold change /veh CD79A (11719716_a_at) / RFU HIST1H1D (11736915_at) / Fold change /veh HIST1H1D (11736915_at) / RFU CASKIN2 (11723855_a_at) / Fold change /veh CASKIN2 (11723855_a_at) / RFU LOC730098 (11760151_x_at) / Fold change /veh LOC730098 (11760151_x_at) / RFU OR4N2 (11742367_at) / Fold change /veh OR4N2 (11742367_at) / RFU PRRT2 (11749266_a_at) / Fold change /veh PRRT2 (11749266_a_at) / RFU SNX32 (11753110_a_at) / Fold change /veh SNX32 (11753110_a_at) / RFU CDHR5 (11726645_a_at) / Fold change /veh CDHR5 (11726645_a_at) / RFU RCAN1 (11760418_a_at) / Fold change /veh RCAN1 (11760418_a_at) / RFU FAM167A (11723789_a_at) / Fold change /veh FAM167A (11723789_a_at) / RFU FAM26E (11764081_at) / Fold change /veh FAM26E (11764081_at) / RFU ISYNA1 (11749810_s_at) / Fold change /veh ISYNA1 (11749810_s_at) / RFU ACY1 (11761880_at) / Fold change /veh ACY1 (11761880_at) / RFU 11764098_at / Fold change /veh 11764098_at / RFU SAMD14 (11745864_x_at) / Fold change /veh SAMD14 (11745864_x_at) / RFU NPB (11741838_a_at) / Fold change /veh NPB (11741838_a_at) / RFU TMPRSS6 (11731388_a_at) / Fold change /veh TMPRSS6 (11731388_a_at) / RFU KRTAP10-2 (11738614_at) / Fold change /veh KRTAP10-2 (11738614_at) / RFU ARHGAP8 /// PRR5-ARHGAP8 (11727945_x_at) / Fold change /veh ARHGAP8 /// PRR5-ARHGAP8 (11727945_x_at) / RFU KRTAP5-7 /// NADSYN1 (11734609_at) / Fold change /veh KRTAP5-7 /// NADSYN1 (11734609_at) / RFU RASL12 (11751679_a_at) / Fold change /veh RASL12 (11751679_a_at) / RFU CDKN2B (11736163_a_at) / Fold change /veh CDKN2B (11736163_a_at) / RFU PRF1 (11729649_at) / Fold change /veh PRF1 (11729649_at) / RFU, ZNF638 /// ZNF638-IT1 / Fold change vs veh, ZNF638 /// ZNF638-IT1 / RFU, PANK3 / Fold change vs veh, PANK3 / RFU, SH3YL1 / Fold change vs veh, SH3YL1 / RFU, ZEB2 / Fold change vs veh, ZEB2 / RFU, NRIP1 / Fold change vs veh, NRIP1 / RFU, PTTG1IP / Fold change vs veh, PTTG1IP / RFU, CAPN2 / Fold change vs veh, CAPN2 / RFU, MED14 / Fold change vs veh, MED14 / RFU, SNORA58 / Fold change vs veh, SNORA58 / RFU, C1orf63 / Fold change vs veh, C1orf63 / RFU, LRRFIP1 / Fold change vs veh, LRRFIP1 / RFU, NDUFAF7 / Fold change vs veh, NDUFAF7 / RFU, SLC12A2 / Fold change vs veh, SLC12A2 / RFU, IBTK / Fold change vs veh, IBTK / RFU, ESF1 / Fold change vs veh, ESF1 / Fold change vs veh, TMEM50B / RFU, TAOK1 / Fold change vs veh, TAOK1 / RFU, ACBD3 / Fold change vs veh, ACBD3 / RFU, TMA16 / Fold change vs veh, TMA16 / RFU, RWDD3 / Fold change vs veh, RWDD3 / RFU, BCAT1 / Fold change vs veh, BCAT1 / RFU, EDEM3 / Fold change vs veh, EDEM3 / RFU, TMEM33 / Fold change vs veh, TMEM33 / RFU, WDR75 / Fold change vs veh, WDR75 / RFU, AHCTF1 / Fold change vs veh, AHCTF1 / RFU, TFRC / Fold change vs veh, TFRC / RFU, ZDHHC17 / Fold change vs veh, ZDHHC17 / RFU, NOM1 / Fold change vs veh, NOM1 / RFU, ARL8B / Fold change vs veh, ARL8B / RFU, ZBTB11 / Fold change vs veh, ZBTB11 / RFU, TAMM41 / Fold change vs veh, TAMM41 / RFU, KIAA1704 /// LOC100996395 / Fold change vs veh, KIAA1704 /// LOC100996395 / RFU, ING1 / Fold change vs veh, ING1 / RFU, TRMT61B / Fold change vs veh, TRMT61B / RFU, FUBP3 / Fold change vs veh, FUBP3 / RFU, TP53 / Fold change vs veh, TP53 / RFU, TNKS2 / Fold change vs veh, TNKS2 / RFU, ZFP14 / Fold change vs veh, ZFP14 / RFU, ACTR2 / Fold change vs veh, ACTR2 / RFU, PPP3R1 / Fold change vs veh, PPP3R1 / RFU, PIK3R1 / Fold change vs veh, PIK3R1 / RFU, HNRNPA1 / Fold change vs veh, HNRNPA1 / RFU, RNF170 / Fold change vs veh, RNF170 / RFU, ZNF28 / Fold change vs veh, ZNF28 / RFU, RNGTT / Fold change vs veh, RNGTT / RFU, OGT / Fold change vs veh, OGT / RFU, BRD1 / Fold change vs veh, BRD1 / RFU, MARS / Fold change vs veh, MARS / RFU, ZNF655 / Fold change vs veh, ZNF655 / RFU, FAHD1 / Fold change vs veh, FAHD1 / RFU, BDP1 / Fold change vs veh, BDP1 / RFU, LRRCC1 / Fold change vs veh, LRRCC1 / RFU, ARID1A / Fold change vs veh, ARID1A / RFU, ZNF146 / Fold change vs veh, ZNF146 / RFU, ZNF330 / Fold change vs veh, ZNF330 / RFU, GPN3 / Fold change vs veh, GPN3 / RFU, C9orf123 / Fold change vs veh, C9orf123 / RFU, N4BP2L2 / Fold change vs veh, N4BP2L2 / RFU, ARFIP1 / Fold change vs veh, ARFIP1 / RFU, FAM179B / Fold change vs veh, FAM179B / RFU, BCL10 / Fold change vs veh, BCL10 / RFU, UHRF1BP1L / Fold change vs veh, UHRF1BP1L / RFU, BET1 / Fold change vs veh, BET1 / RFU, CNOT2 / Fold change vs veh, CNOT2 / RFU, ZNF268 / Fold change vs veh, ZNF268 / Fold change vs veh, ZNF507 / RFU, DGCR2 / Fold change vs veh, DGCR2 / RFU, WDSUB1 / Fold change vs veh, WDSUB1 / Fold change vs veh, HSP90B1 /// MIR3652 / RFU, ADSS / Fold change vs veh, ADSS / RFU, GK / Fold change vs veh, GK / RFU, ZNF148 / Fold change vs veh, ZNF148 / RFU, TAF9 / Fold change vs veh, TAF9 / RFU, SLC1A5 / Fold change vs veh, SLC1A5 / RFU, SLMO2 / Fold change vs veh, SLMO2 / RFU, ABCC4 / Fold change vs veh, ABCC4 / RFU, LOC101060439 /// RAP1B / Fold change vs veh, LOC101060439 /// RAP1B / RFU, RFX7 / Fold change vs veh, RFX7 / RFU, GTPBP10 / Fold change vs veh, GTPBP10 / RFU, CNEP1R1 / Fold change vs veh, CNEP1R1 / RFU, BIVM-ERCC5 /// ERCC5 / Fold change vs veh, BIVM-ERCC5 /// ERCC5 / RFU, ILF3 / Fold change vs veh, ILF3 / RFU 11762660_at / Fold change /veh 11762660_at / RFU VCAN (11757783_s_at) / Fold change /veh VCAN (11757783_s_at) / RFU DDX43 (11728927_at) / Fold change /veh DDX43 (11728927_at) / RFU KRT8 (11758188_x_at) / Fold change /veh KRT8 (11758188_x_at) / RFU NKD1 (11759106_at) / Fold change /veh NKD1 (11759106_at) / RFU SRD5A1 (11742802_a_at) / Fold change /veh SRD5A1 (11742802_a_at) / RFU TPSAB1 /// TPSB2 (11721975_s_at) / Fold change /veh TPSAB1 /// TPSB2 (11721975_s_at) / RFU GSTM3 (11746129_a_at) / Fold change /veh GSTM3 (11746129_a_at) / RFU IL23R (11737362_x_at) / Fold change /veh IL23R (11737362_x_at) / RFU TMEM51 (11727254_a_at) / Fold change /veh TMEM51 (11727254_a_at) / RFU PIWIL2 (11732686_x_at) / Fold change /veh PIWIL2 (11732686_x_at) / RFU ORM1 (11744905_x_at) / Fold change /veh ORM1 (11744905_x_at) / RFU CCDC152 (11743942_at) / Fold change /veh CCDC152 (11743942_at) / RFU ECM1 (11717891_a_at) / Fold change /veh ECM1 (11717891_a_at) / RFU IL23R (11748794_a_at) / Fold change /veh IL23R (11748794_a_at) / RFU TNFAIP8L3 (11732012_x_at) / Fold change /veh TNFAIP8L3 (11732012_x_at) / RFU MBOAT4 (11741988_at) / Fold change /veh MBOAT4 (11741988_at) / RFU 11764193_at / Fold change /veh 11764193_at / RFU TMEM53 (11763286_at) / Fold change /veh TMEM53 (11763286_at) / RFU MAGEB2 (11727129_at) / Fold change /veh MAGEB2 (11727129_at) / RFU TMEM200A (11744735_a_at) / Fold change /veh TMEM200A (11744735_a_at) / RFU CCDC152 (11751479_a_at) / Fold change /veh CCDC152 (11751479_a_at) / RFU FAM211A (11726209_a_at) / Fold change /veh FAM211A (11726209_a_at) / RFU RGS16 (11746705_a_at) / Fold change /veh RGS16 (11746705_a_at) / RFU VCAN (11755009_s_at) / Fold change /veh VCAN (11755009_s_at) / RFU RHOB (11743442_s_at) / Fold change /veh RHOB (11743442_s_at) / RFU RGS16 (11720943_a_at) / Fold change /veh RGS16 (11720943_a_at) / RFU RGS16 (11720944_at) / Fold change /veh RGS16 (11720944_at) / RFU, VPS4B / Fold change vs veh, VPS4B / RFU, CREB1 / Fold change vs veh, CREB1 / RFU, DNAJC13 / Fold change vs veh, DNAJC13 / RFU, GNAQ / Fold change vs veh, GNAQ / RFU, CDK5R1 / Fold change vs veh, CDK5R1 / RFU, ZRANB3 / Fold change vs veh, ZRANB3 / RFU, CUL4A / Fold change vs veh, CUL4A / RFU, CCNY / Fold change vs veh, CCNY / RFU, UFL1 / Fold change vs veh, UFL1 / RFU, COG3 / Fold change vs veh, COG3 / RFU, DIAPH2 / Fold change vs veh, DIAPH2 / RFU, SKA2 / Fold change vs veh, SKA2 / RFU, AFF3 / Fold change vs veh, AFF3 / RFU, LMF1 / Fold change vs veh, LMF1 / RFU, IPO11 / Fold change vs veh, IPO11 / RFU, DFFB / Fold change vs veh, DFFB / RFU, FOXP1 / Fold change vs veh, FOXP1 / RFU, CARD8 / Fold change vs veh, CARD8 / RFU, STRN3 / Fold change vs veh, STRN3 / RFU, ADK / Fold change vs veh, ADK / RFU, RASSF2 / Fold change vs veh, RASSF2 / RFU, WIPF1 / Fold change vs veh, WIPF1 / RFU, LARP1B / Fold change vs veh, LARP1B / RFU, RASA1 / Fold change vs veh, RASA1 / RFU, RB1 / Fold change vs veh, RB1 / RFU, PPFIA1 / Fold change vs veh, PPFIA1 / RFU, MAT2A / Fold change vs veh, MAT2A / RFU, CCT5 / Fold change vs veh, CCT5 / RFU, WDR92 / Fold change vs veh, WDR92 / RFU, CUX1 / Fold change vs veh, CUX1 / RFU, TTC7A / Fold change vs veh, TTC7A / RFU, TMEM135 / Fold change vs veh, TMEM135 / RFU, DEPTOR / Fold change vs veh, DEPTOR / RFU, CPM / Fold change vs veh, CPM / RFU, DNAJB6 / Fold change vs veh, DNAJB6 / RFU, CACNA2D3 / Fold change vs veh, CACNA2D3 / RFU, DTX4 / Fold change vs veh, DTX4 / RFU, TFCP2 / Fold change vs veh, TFCP2 / RFU, GMCL1 /// GMCL1P1 / Fold change vs veh, GMCL1 /// GMCL1P1 / RFU, AEBP2 / Fold change vs veh, AEBP2 / RFU, SNHG1 /// SNORD22 /// SNORD25 /// SNORD26 /// SNORD27 /// SNORD28 /// SNORD29 /// SNORD31 / Fold change vs veh, SNHG1 /// SNORD22 /// SNORD25 /// SNORD26 /// SNORD27 /// SNORD28 /// SNORD29 /// SNORD31 / Fold change (Aza/veh), C12orf56 (ProbeSet 11735607_a_at) / Fold change (ACY-1035/veh), C12orf56 (ProbeSet 11735607_a_at) / Fold change (Aza/veh), FGFR1OP (ProbeSet 11751329_s_at) / Fold change (ACY-1035/veh), FGFR1OP (ProbeSet 11751329_s_at) / Fold change (Aza/veh), VPS36 (ProbeSet 11739960_a_at) / Fold change (ACY-1035/veh), VPS36 (ProbeSet 11739960_a_at) / RFU SYPL1 (11715823_x_at) / Fold change /veh SYPL1 (11715823_x_at) / RFU IGFBP7 (11715501_s_at) / Fold change /veh IGFBP7 (11715501_s_at) / RFU REEP3 (11722064_at) / Fold change /veh REEP3 (11722064_at) / RFU IGLL1 (11728026_x_at) / Fold change /veh IGLL1 (11728026_x_at): dose or concentration left out as unconfirmed. The class given is cell-based, human.

The structures appear in SMILES notation.

For the compound `Nc1ncn([C@@H]2O[C@H](CO)[C@@H](O)[C@H]2O)c(=O)n1` [azacitidine], the “Fold change /veh HAMP (11756126_x_at)” value is listed as 0.87.
